Data published in patent US4874773A, “3-Aminocarbonyl-1,4-dihydropyridine-5-carboxylic acid compounds, and pharmaceutical composition containing the same” (priority 1985, dated 1989).
Where two headings read alike, the source gives them in different places. Each block holds one molecule with its values, some of them ahead of it.

Experiments:
[1] = system: Spontaneously hypertensive male rats; experiment: Experiment 1-2 Hypotensive activity (oral, 8 hours); assay type: in vivo, rat; settings: for hypotensive activity (in words): Table 5, comparison with nifedipine and nicardipine hydrochloride where stated
Experimental: Spontaneously hypertensive male rats (13-15 week age, one group: 3 rats) were used. […] The rats were fixed in a Howlman cage without fasting, and the femoral arterial pressure was measured by a direct method without anesthesia with a cannula which was previously inserted into the femoral artery of the animal, via a pressure transducer (MPU-0.5, manufactured by Nippon Koden K.K.). The test compounds were orally administered in the form of a suspension in 0.5% methyl cellulose solution in a dose of 10 mg/kg (in some compounds, 3 mg/kg). In the control group, only 0.5% methyl cellulose solution was administered likewise. The blood pressure was measured for 5 hours after the administration of test compounds.
The hypotensive activity was measured in the same manner as described in Experiment 1-1 except that the rats were used in 3-5 rats per each group, and the test compounds were administered in a dose of 1 mg/kg (some compounds, 3 mg/kg), and the blood pressure was measured for 8 hours after the administration of test compounds.

[2] = system: isolated heart; experiment: Experiment 2-1 Activity on isolated heart; parameters: species or system Japanese white rabbit; settings: Oryctolagus cuniculus, 3 μg/heart; for activation at 3 µg/heart: read-out: Increase of coronary perfusion; for inhibition at 3 µg/heart, 3 µg/heart: read-out: Inhibitory rate of systole; for inhibition at 3 µg/heart: read-out: Reducing rate of heart pulse
Experimental: Japanese white rabbit (weighing 2.2-2.5 kg) was anesthetized by introvenous injection of nembutal (20 mg/kg) and then sacrificed by bleeding from common carotid artery. […] After stabilizing the heart preparation for 90 minutes, the test compound was administered. There were measured the perfusion volume with a drop-counting meter (ET-600G type, manufactured by Nippon Koden K.K.) and the heart pulse and the contractility via a force-displacement transducer (FD pick up, SB-IT type, manufactured by Nippon Koden K.K.) (for measuring heart pulse, an instant pulse meter (AT-601G type, minufactured by Nippon Koden K.K.) being further used).

[3] = system: Spontaneously hypertensive male rats; experiment: Experiment 1-1 Hypotensive activity (oral, conscious spontaneously hypertensive rats); assay type: in vivo, rat; settings: 10 mg/kg oral; for Maximum hypotension: mean blood pressure
[4] = system: isolated heart; experiment: Experiment 2-2 Activity onto the isolated heart (with duration); parameters: species or system Japanese white rabbit; settings: for Coronary perfusion Duration: time until perfusion volume returned to initial level
Experimental: Japanese white rabbit (weighing 2.2-2.5 kg) was anesthetized by introvenous injection of nembutal (20 mg/kg) and then sacrificed by bleeding from common carotid artery. […] There were measured the perfusion volume with a drop-counting meter (ET-600G type, manufactured by Nippon Koden K.K.) and the heart pulse and the contractility via a force-displacement transducer (FD pick up, SB-IT type, manufactured by Nippon Koden K.K.) (for measuring heart pulse, an instant pulse meter (AT-601G type, minufactured by Nippon Koden K.K.) being further used).
The test compounds were dissolved in ethanol, and the solution was diluted in 100-fold with purified water, and the diluted solution was administered in an amount of 0.1 ml/heart (i.e. 3 μg/heart).
The activity was measured in the same manner as described in Experiment 2-1 except that in some test compounds, the dose was in 1 μg/heart. Besides, the duration of the activity was evaluated by counting the time until the coronary perfusion volume became to the initial level before the administration of the test compound.

[5] = system: isolated aorta; experiment: Experiment 3 Relaxing activity on the isolated aorta (30 mM KCl contracted); parameters: species or system Japanese white rabbit; settings: for EC50: Oryctolagus cuniculus, 30 mM KCl contraction, maximum relaxation by papaverine = 100%, read-out: EC50 (concentration for 50% relaxation); for relaxing / vasodilating activity on isolated aorta (in words): Table 8, comparison with nifedipine and nicardipine hydrochloride, etc. where stated
Experimental: Japanese white rabbit (weighing 2.3-2.7 kg) was sacrificed by bleeding from common carotid artery. Immediately, the aorta was isolated and cut into a sprial strip. The strip preparation was vertically suspended under a resting tension of 2.0 g in a tissue bath containing 20 ml of modified Ringer solution while bubbling with a mixture of 95% O2 +5% CO2 by connecting one end of the strip to a lever of the above-mentioned FD pick up. The aortic strip was contracted with 30 mM KCl. When the contraction became constant, the test compound was accumulatively administered, and the relaxing effect was measured. After the final treatment, 10^-4T M papaverine was administered and the maximum relaxation obtained thereby was taken as 100%. In comparison with the maximum relaxation obtained by papaverine, the rate of relaxation by the test compounds was evaluated, and the concentration of the test compounds for obtaining 50% relaxation (EC50) was calculated.
The test compound was dissolved in ethanol, and the solution was diluted in 100 to 1×10^4 folds with a nutrient solution, and the diluted solution was administered.

[6] = Oryctolagus cuniculus, 1 μg/heart, read-out: Coronary perfusion Increase
[7] = Oryctolagus cuniculus, 1 μg/heart, read-out: Inhibitory rate of systole
[8] = Oryctolagus cuniculus, 1 μg/heart, read-out: Reducing rate of heart pulse

EC50 [5]: 0.019 µM
Structure (SMILES): COC(=O)C1=C(C)NC(C)=C(C(=O)OCCN(C)Cc2ccccc2)C1c1cccc([N+](=O)[O-])c1.Cl (stereo not shown) [Compound B, methyl, N-benzyl-N-methylaminoethyl 1,4-dihydro-2,6-dimethyl-4-(3-nitrophenyl)-3,5-pyridinedicarboxylate hydrochloride, reference compound]
Maximum hypotension ([1]; 3 mg/kg oral): 27 mmHg
Recovering time ([1]; 3 mg/kg oral): 3.0 to 4.0 h
Time for recovering 1/2 of max. hypotension ([1]; 3 mg/kg oral): 2.0 h
Time until reaching to max. hypotension ([1]; 3 mg/kg oral): 30 min
activation at 3 µg/heart [2]: 15%
inhibition at 3 µg/heart, 3 µg/heart [2]: 10%
inhibition at 3 µg/heart [2]: 5%
Recovering time [3]: > 5.0 h
Time for recovering 1/2 of max. hypotension [3]: > 5.0 h
Time until reaching to max. hypotension [3]: 15 min
Maximum hypotension [3]: 57 mmHg
Coronary perfusion Duration ([4]; 3 μg/heart): < 10 min
activation at 3 µg/heart ([4]; Oryctolagus cuniculus, 3 μg/heart, read-out: Coronary perfusion Increase): 15%
inhibition at 3 µg/heart ([4]; Oryctolagus cuniculus, 3 μg/heart, read-out: Inhibitory rate of systole): 10%
inhibition at 3 µg/heart ([4]; Oryctolagus cuniculus, 3 μg/heart, read-out: Reducing rate of heart pulse): 5%

Structure (SMILES): C#CCNC(=O)C1=C(C)NC(C)=C(C(=O)OCCCCCCCCC)C1c1ccccc1[N+](=O)[O-] (stereo not shown) [Example 79, n-nonyl 2,6-dimethyl-3-propargylaminocarbonyl-4-(o-nitrophenyl)-1,4-dihydropyridine-5-carboxylate]
Maximum hypotension ([1]; 1 mg/kg oral): 45 mmHg
Recovering time ([1]; 1 mg/kg oral): 5.0 h
Time for recovering 1/2 of max. hypotension ([1]; 1 mg/kg oral): 3.0 h
Time until reaching to max. hypotension ([1]; 1 mg/kg oral): 60 min
hypotensive activity (in words) [1]: the same or more potent hypotensive activity with longer duration
Coronary perfusion Duration ([4]; 1 μg/heart): 60 min
activation at 1 µg/heart [4, 6]: 50%
inhibition at 1 µg/heart [4, 7]: 40%
inhibition at 1 µg/heart [4, 8]: 30%

Structure (SMILES): C#CCNC(=O)C1=C(C)NC(C)=C(C(=O)OCCCCCCCC)C1c1ccccc1[N+](=O)[O-] (stereo not shown) [Example 78, n-octyl 2,6-dimethyl-3-propargylaminocarbonyl-4-(o-nitrophenyl)-1,4-dihydropyridine-5-carboxylate]
Maximum hypotension ([1]; 1 mg/kg oral): 33 mmHg
Recovering time ([1]; 1 mg/kg oral): 5.0 h
Time for recovering 1/2 of max. hypotension ([1]; 1 mg/kg oral): 3.0 h
Time until reaching to max. hypotension ([1]; 1 mg/kg oral): 60 min
hypotensive activity (in words) [1]: the same or more potent hypotensive activity with longer duration
Coronary perfusion Duration ([4]; 1 μg/heart): 60 min
activation at 1 µg/heart [4, 6]: 55%
inhibition at 1 µg/heart [4, 7]: 35%
inhibition at 1 µg/heart [4, 8]: 10%

EC50 [5]: 0.03 µM
Structure (SMILES): CCCCCOC(=O)C1=C(C)NC(C)=C(C(=O)NC(C)C)C1c1ccccc1[N+](=O)[O-] (stereo not shown) [Example 8, n-pentyl 2,6-dimethyl-3-isopropylaminocarbonyl-4-(o-nitrophenyl)-1,4-dihydropyridine-5-carboxylate]
activation at 3 µg/heart [2]: 35%
inhibition at 3 µg/heart, 3 µg/heart [2]: 13%
inhibition at 3 µg/heart [2]: 5%
Recovering time [3]: 5.0 h
Time for recovering 1/2 of max. hypotension [3]: 4.0 h
Time until reaching to max. hypotension [3]: 15 min
Maximum hypotension [3]: 30 mmHg
relaxing / vasodilating activity on isolated aorta (in words) [5]: the same or more potent activity

EC50 [5]: 0.02 µM
Structure (SMILES): CC1=C(C(=O)NC(C)C)C(c2ccccc2[N+](=O)[O-])C(C(=O)OCCC(C)C)=C(C)N1 (stereo not shown) [Example 47]
activation at 3 µg/heart [2]: 35%
inhibition at 3 µg/heart, 3 µg/heart [2]: 5%
inhibition at 3 µg/heart [2]: 11%
Recovering time [3]: 3.0 h
Time for recovering 1/2 of max. hypotension [3]: 2.0 h
Time until reaching to max. hypotension [3]: 30 min
Maximum hypotension [3]: 32 mmHg
relaxing / vasodilating activity on isolated aorta (in words) [5]: the same or more potent activity
